{"source": "patent US20140315786A1", "about": "“USE OF INTRACELLULAR ENZYMES FOR THE RELEASE OF COVALENTLY LINKED BIOACTIVES” (Catabasis Pharmaceuticals, Inc., priority 2011, published 2014)", "key": {"[1]": {"molecular_target": "T1, human recombinant MAG-lipase (Homo sapiens, UniProt Q99685)", "T1 construct": "purchased Cayman 705192", "T1 sequence (Q99685 1-303)": "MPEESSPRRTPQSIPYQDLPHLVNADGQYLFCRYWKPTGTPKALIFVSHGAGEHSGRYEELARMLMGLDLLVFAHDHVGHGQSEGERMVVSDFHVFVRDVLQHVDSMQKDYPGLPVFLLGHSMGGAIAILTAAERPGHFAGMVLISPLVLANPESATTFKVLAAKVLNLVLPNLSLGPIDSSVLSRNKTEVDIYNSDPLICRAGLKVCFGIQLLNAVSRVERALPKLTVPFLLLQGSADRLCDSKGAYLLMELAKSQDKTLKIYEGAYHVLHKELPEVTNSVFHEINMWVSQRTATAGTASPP", "experiment": "Hydrolysis with human recombinant monoacylglycerol lipase, with and without MAGL inhibitor", "format": "biochemical", "conditions": "FIG. 8; 5 μM inhibitor", "protocol": "Hydrolysis experiment involving Monoacylglycerol lipase (MAGL) with and without a MAGL inhibitor. A commercially available Monoacylglycerol (MAGL) kit from Cayman (Cat #705192) was used for the hydrolysis experiment. The hydrolysis was carried out in Eppendorf tubes by adding together 300 μL of a 10 mM Tris-HCl buffer (pH 7.2, 1 mM EDTA), 20 μL of DMSO, and 20 μL of the human recombinant MAG-lipase. […] The Eppendorf tubes were gently inverted to mix the components and then placed in a 37° C. incubator. A 25 μl, sample was withdrawn at each of the following time points: 0, 5, 10, 15, and 30 min. […] In a separate experiment, the hydrolysis was then repeated in the presence of a MAGL inhibitor (compound JZL184, supplied with the commercially available MAGL kit). Eppendorf tubes were charged with 300 μL of a 10 mM Tris-HCl buffer (pH 7.2, 1 mM EDTA), 20 μL of a […] solution of JZL184 in DMSO in order to make a 5 μM final concentration, and 20 μL of the human recombinant MAG-lipase. […] The Eppendorf tubes were gently inverted to mix the components and then placed in a 37° C. incubator."}, "[2]": {"experiment": "Rat liver lysate hydrolysis assay (FAAH and thiol reductase promoted cleavage)", "format": "in vitro ADME", "protocol": "The rat liver lysate hydrolysis experiment was performed in Eppendorf tubes, by adding the necessary amount of water for the assay first. A 10× buffer solution with final concentrations of HEPES and EDTA of 50 mM and 1 mM respectively was prepared from 500 mM HEPES and 10 mM EDTA in water. Rat liver lysate was removed from −80° C. storage, thawed and centrifuged at 4000 g for 5 min. A volume of the supernatant was transferred to the Eppendorf tube yielding a final concentration in the assay of 3 mg/mL rat liver lysate. The tube was gently inverted to mix the components. The reactions are then place in a 37° C. incubator for 20 min allowing the reaction mixture to reach 37° C. before the reaction was initiated.\nTo initiate the hydrolysis reaction, the samples were removed from the incubator and the compounds of the invention were added, as a DMSO solution, prepared in a manner to allow for <1% final DMSO concentration and 5 μM final compound concentration. […]\nThis rat liver lysate hydrolysis assay was used to assess the hydrolysis of bis-fatty acid linked bioactives into individual components. As an illustrative example, the bis-fatty acid cystamine linked bioactive VI-7 was assessed in this rat liver lysate assay. […] The amount of cysteamine that was formed could be quantitated by LC-MS/MS by carrying out an initial derivatization with Ellman's reagent. […] 50 μl of the tissue lysate reaction mixture was transferred to a 1.5 mL eppendorf tube and derivatization of cysteamine was performed with 50 μl 10 mM Ellman's reagent (5,5′ dithio-bis(2-nitrobenzoic acid). Samples were incubated at room temperature for 10 minutes, vortex for 1 minute followed by protein precipitation by addition of 300 μl of acetonitrile containing IS and 0.2% butylated hydroxyanisole (BHA). Supernatant was transferred to a clean LC vial and 10 μl of the sample was injected on LC-MS/MS for the measurement of cysteamine. The concentration of cysteamine was measured by LC-MS/MS. […]"}, "FAAH-2": {"molecular_target": "T2, FAAH-2 (Homo sapiens, UniProt Q6GMR7)", "T2 construct": "expressed in transfected cells; host or cells: COS-7", "T2 sequence (Q6GMR7 1-532)": "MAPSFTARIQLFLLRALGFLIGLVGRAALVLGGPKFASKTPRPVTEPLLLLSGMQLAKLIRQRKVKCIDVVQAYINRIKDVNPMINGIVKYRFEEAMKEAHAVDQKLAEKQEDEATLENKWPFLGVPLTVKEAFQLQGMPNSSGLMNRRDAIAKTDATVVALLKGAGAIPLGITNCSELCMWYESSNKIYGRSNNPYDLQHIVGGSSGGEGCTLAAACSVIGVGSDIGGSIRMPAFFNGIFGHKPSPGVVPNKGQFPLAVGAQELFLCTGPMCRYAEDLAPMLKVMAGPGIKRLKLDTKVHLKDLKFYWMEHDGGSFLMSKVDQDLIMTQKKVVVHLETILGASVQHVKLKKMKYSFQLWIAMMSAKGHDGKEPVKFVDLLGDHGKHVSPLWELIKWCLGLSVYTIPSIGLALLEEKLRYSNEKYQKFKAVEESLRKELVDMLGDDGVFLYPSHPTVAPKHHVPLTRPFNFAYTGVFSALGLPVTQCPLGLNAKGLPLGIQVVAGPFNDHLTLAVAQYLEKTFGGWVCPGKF", "experiment": "Hydrolysis in homogenate of COS-7 cells overexpressed with FAAH-2", "format": "biochemical", "conditions": "FIG. 9B; 5 μM inhibitor", "protocol": "(§1) Hydrolysis experiments using COS-7 cells overexpressed with either FAAH-1 or FAAH-2. […] The next day, cells were transfected, in duplicate, with 10 μg Vector control, flag-FAAH-1 or flag-FAAH-2 plasmids using Lipofectamine 2000 (Invitrogen) according to the manufacturer's protocol. 24 hours post transfection, cells were washed 1× in cold PBS, aspirated dry, and then scraped off the plate in the presence of 0.6 mL reaction buffer (50 mM HEPES, pH 9.0; 1 mM EDTA). Cells were then homogenated using a VWR VDI 12 Adaptable Homogenizer, on ice for 1 minute, and the sample was then clarified by centrifugation at 6,000 g for 5 minutes. The supernatant of this homogenated fraction was then used for FAAH hydrolysis assays. […] Gel densitometry was performed and the % FAAH extracted in each successive lysis conditions was determined according to standard procedures.\n(§2) The following hydrolysis experiments were performed using COS-7 cells containing overexpressed FAAH-1 or FAAH-2. […] Briefly, the hydrolysis experiments were carried out in Eppendorf tubes using procedures similar to the one described above. […] At time=0, 1, and 3 h, the protein was precipitated with acetonitrile."}, "FAAH-1": {"molecular_target": "T3, FAAH-1 (Homo sapiens, UniProt O00519)", "T3 construct": "expressed in transfected cells; host or cells: COS-7", "T3 sequence (O00519 1-579)": "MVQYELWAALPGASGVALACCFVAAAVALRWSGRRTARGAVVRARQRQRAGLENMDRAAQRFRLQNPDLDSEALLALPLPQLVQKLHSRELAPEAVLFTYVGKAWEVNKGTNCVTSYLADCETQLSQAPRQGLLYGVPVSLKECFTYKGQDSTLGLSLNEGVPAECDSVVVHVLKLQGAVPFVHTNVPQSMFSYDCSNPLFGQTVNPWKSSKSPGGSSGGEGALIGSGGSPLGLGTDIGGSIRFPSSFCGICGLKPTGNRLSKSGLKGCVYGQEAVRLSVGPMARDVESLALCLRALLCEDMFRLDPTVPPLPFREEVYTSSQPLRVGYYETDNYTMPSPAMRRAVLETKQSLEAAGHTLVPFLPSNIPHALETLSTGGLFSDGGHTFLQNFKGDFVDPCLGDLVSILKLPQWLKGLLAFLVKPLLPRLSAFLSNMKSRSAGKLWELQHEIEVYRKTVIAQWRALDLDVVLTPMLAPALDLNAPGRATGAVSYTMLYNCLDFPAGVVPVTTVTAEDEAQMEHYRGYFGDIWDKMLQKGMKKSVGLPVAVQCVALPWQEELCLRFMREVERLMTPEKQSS", "experiment": "Hydrolysis in homogenate of COS-7 cells overexpressed with FAAH-1", "format": "biochemical", "conditions": "5 μM inhibitor", "protocol": "as §1, §2"}, "LTB4": {"tested_on": "LTB4", "experiment": "LTB4 assay (HTRF) in differentiated HL-60 cells stimulated with A23187", "format": "cell-based", "conditions": "Homo sapiens, linked bioactive", "protocol": "The LTB4 assay was conducted using a commercial kit (CISBIO, Bedford, Mass.) in HL-60 cells. HL-60 cells were maintained in IMEM supplemented with 20% serum in 37° C. in 5% CO2. Media was changed 2 times a week and cells kept at a density of 2×10^5 to 1×10^6 cells/ml.\nBefore the experiment cell culture media was changed to 10% serum and HL-60 cells were differentiated for 3 days in 1.3% DMSO. On day 3 cells were concentrated 2 times in the DMSO containing media and 1 ml cell suspension/well plated in 24-well plates. BSA controls or CAT compounds prepared in 1% BSA from an ethanol or DMSO stock solution were added to the wells and the cell were incubated for 21 hours. Next day, cells were transferred to Eppendorf tubes centrifuged at 300×g and rinsed once in DPBS. Cells were re-suspended in 300 μl DPBS containing 2% FBS (assay buffer), and 80 μl/well was plated in 96-well plates (black sides, clear bottom). Some cells were pre-incubated with 10 μM NDGA, a LOX inhibitor. To initiated LTB4 secretion, cells were stimulated with the calcium ionophore A23187 (5 μM) for 15 min. […] LTB4 content in the supernatant was assessed by a homogeneous time resolved fluorescence (HTRF) LTB4 assay from CISBIO, in a 384-well plate format. […] Cell viability was determined in the 96-well plate by CellTiter-Glo (Promega, Madison, Wis.)."}}}
{"molecule": "O=C(Oc1ccc([N+](=O)[O-])cc1)N1CCC(C(O)(c2ccc3c(c2)OCO3)c2ccc3c(c2)OCO3)CC1", "note": "[JZL184, reference compound]", "values": [{"measurement": "effect of MAGL inhibitor on rate of hydrolysis of compound II-1", "setting": "[1]", "result": "reduced significantly"}]}
{"molecule": "O=C(Nc1cccnc1)N1CCC(Cc2cccc(Oc3ccc(C(F)(F)F)cn3)c2)CC1", "note": "[PF-3845]", "values": [{"measurement": "effect of FAAH inhibitor on formation of cysteamine from compound VI-7 in rat liver lysate", "setting": "[2]; FIG. 7B, presence of inhibitor", "result": "essentially no increase in cysteamine"}, {"measurement": "effect of inhibitor on hydrolysis of compound I-1, FAAH-2", "setting": "FAAH-2", "result": "not as effective as URB597"}, {"measurement": "effect of inhibitor on rate of hydrolysis of compound I-1, FAAH-1", "setting": "FAAH-1; FIG. 9A", "result": "significantly reduced"}, {"measurement": "effect of inhibitor on rate of formation of DHA from compound I-1, FAAH-1", "setting": "FAAH-1; FIG. 9C", "result": "significantly inhibited"}]}
{"molecule": "CC/C=C\\C/C=C\\C/C=C\\C/C=C\\C/C=C\\C/C=C\\CCC(=O)NCCSSCCNC(=O)CCC/C=C\\C/C=C\\C/C=C\\C/C=C\\C/C=C\\CC", "note": "[VI-7, (4Z,7Z,10Z,13Z,16Z,19Z)-docosa-4,7,10,13,16,19-hexaenoic acid {2-[2-((5Z,8Z,11Z,14Z,17Z)-icosa-5,8,11,14,17-pentaenoylamino)-ethyldisulfanyl]-ethyl}-amide]", "values": [{"measurement": "hydrolysis in rat liver lysate", "setting": "[2]; FIG. 7A, 5 μM compound, 3 mg/mL rat liver lysate, 37° C.", "result": "time-dependent hydrolysis"}, {"measurement": "formation of cysteamine in rat liver lysate", "setting": "[2]; FIG. 7B, absence of the FAAH inhibitor PF-3845", "result": "time dependent formation of cysteamine"}]}
{"molecule": "CC/C=C\\C/C=C\\C/C=C\\C/C=C\\C/C=C\\C/C=C\\CCC(=O)NCCNC(=O)C(C)c1ccc(CC(C)C)cc1", "note": "(stereo not drawn) [VIIa-1, (4Z,7Z,10Z,13Z,16Z,19Z)-N-(2-(2-(4-isobutylphenyl)propanamido)ethyl)docosa-4,7,10,13,16,19-hexaenamide]", "values": [{"measurement": "IC50", "setting": "LTB4", "result": 2200, "unit": "nM"}]}
{"molecule": "CC/C=C\\C/C=C\\C/C=C\\C/C=C\\C/C=C\\C/C=C\\CCC(=O)N[C@@H](CCCCNC(=O)C(C)c1ccc(CC(C)C)cc1)C(=O)O", "note": "(stereo partly drawn) [VIIa-2, (2S)-2-((4Z,7Z,10Z,13Z,16Z,19Z)-docosa-4,7,10,13,16,19-hexaenamido)-6-(2-(4-isobutylphenyl)propanamido)hexanoic acid]", "values": [{"measurement": "IC50", "setting": "LTB4", "result": 1600, "unit": "nM"}]}
